Data reported in PMC5876368, “Evaluation of a dimeric-cRGD peptide for targeted PET-CT imaging of peripheral angiogenesis in diabetic mice” (Scientific Reports, 2018).

Experiments:
[1] = Biodistribution and clearance in mice (gamma well counting and PET-CT); format: in vivo; settings: one hour after jugular vein injection, gamma well counting
Experimental: One week after occlusion, 5 groups of animals were injected with 6.81 ± 0.536 MBq of ^64Cu-NOTA-PEG4-cRGD2 via the jugular vein and at various time points (30 min n = 3, 1 hr n = 3, 2 hr n = 3, 4 hr n = 3, and 24 hr n = 2), different organs were excised and subjected to gamma well counting. The mass and radioactivity of tissue sections were assessed with a Voyager Pro. (Ohaus, USA) and Wizard2 gamma well counter (PerkinElmer, USA) respectively. The ^64Cu signal was then corrected to account for background radioactivity, radioactive decay of the samples, and tissue weight.
(§1) One week after occlusion, DM and non-DM mice (n = 15) were injected with 6.81 ± 0.536 MBq of ^64Cu-NOTA-PEG4-cRGD2 via the jugular vein and 60 minutes later in vivo microPET-CT imaging was performed using a small animal dedicated Inveon system (Siemens Healthcare USA). […]
Skeletal muscles from both the ischemic and non-ischemic hindlimbs were excised and separated into distal and proximal sections based on the location of the ligature in the ischemic limb and anatomical landmarks in the non-ischemic limb. The mass and radioactivity of tissue sections were assessed with a Voyager Pro. […] The ^64Cu signal was then corrected to account for background radioactivity, radioactive decay of the samples, and tissue weight.

[2] = target: T1, αV β3 integrin (Mus musculus, UniProt O54890+P43406); experiment: PET-CT imaging and gamma well counting of hindlimb uptake after femoral artery ligation, DM vs non-DM mice; format: in vivo; settings: mice 1 week after femoral artery ligation
T1 construct: from tissue; host or cells: hindlimb skeletal muscle of live C57BL/6 mice (ischemic and non-ischemic, DM and non-DM)
T1 sequence (P43406 31-885 limits assumed): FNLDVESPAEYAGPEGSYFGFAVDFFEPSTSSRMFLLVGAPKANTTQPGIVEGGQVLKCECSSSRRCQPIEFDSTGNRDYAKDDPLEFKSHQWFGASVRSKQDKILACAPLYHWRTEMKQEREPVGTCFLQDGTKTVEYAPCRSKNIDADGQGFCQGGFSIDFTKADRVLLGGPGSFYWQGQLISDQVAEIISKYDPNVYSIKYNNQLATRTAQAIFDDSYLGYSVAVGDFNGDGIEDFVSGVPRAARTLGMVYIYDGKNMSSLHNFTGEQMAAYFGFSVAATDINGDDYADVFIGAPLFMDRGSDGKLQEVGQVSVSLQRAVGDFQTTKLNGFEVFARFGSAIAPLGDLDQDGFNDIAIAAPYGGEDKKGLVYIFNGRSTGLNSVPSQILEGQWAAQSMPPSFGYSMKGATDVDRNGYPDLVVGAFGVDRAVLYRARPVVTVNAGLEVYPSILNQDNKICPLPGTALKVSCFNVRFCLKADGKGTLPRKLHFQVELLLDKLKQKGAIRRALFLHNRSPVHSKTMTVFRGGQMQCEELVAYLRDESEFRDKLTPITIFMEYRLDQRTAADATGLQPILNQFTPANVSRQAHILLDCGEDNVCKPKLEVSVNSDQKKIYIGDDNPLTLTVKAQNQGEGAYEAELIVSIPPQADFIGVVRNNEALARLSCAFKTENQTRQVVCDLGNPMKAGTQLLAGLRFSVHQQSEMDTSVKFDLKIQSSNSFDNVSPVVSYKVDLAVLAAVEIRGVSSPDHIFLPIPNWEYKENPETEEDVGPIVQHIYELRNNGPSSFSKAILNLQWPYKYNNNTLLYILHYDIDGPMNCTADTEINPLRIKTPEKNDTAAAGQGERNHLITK
T1 sequence (P43406 887-1044 partner limits assumed): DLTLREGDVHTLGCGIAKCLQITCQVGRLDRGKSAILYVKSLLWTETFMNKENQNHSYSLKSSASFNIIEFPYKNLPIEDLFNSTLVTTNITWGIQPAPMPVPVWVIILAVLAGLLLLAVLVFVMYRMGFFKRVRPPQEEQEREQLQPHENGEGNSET
T1 sequence (O54890 26-787): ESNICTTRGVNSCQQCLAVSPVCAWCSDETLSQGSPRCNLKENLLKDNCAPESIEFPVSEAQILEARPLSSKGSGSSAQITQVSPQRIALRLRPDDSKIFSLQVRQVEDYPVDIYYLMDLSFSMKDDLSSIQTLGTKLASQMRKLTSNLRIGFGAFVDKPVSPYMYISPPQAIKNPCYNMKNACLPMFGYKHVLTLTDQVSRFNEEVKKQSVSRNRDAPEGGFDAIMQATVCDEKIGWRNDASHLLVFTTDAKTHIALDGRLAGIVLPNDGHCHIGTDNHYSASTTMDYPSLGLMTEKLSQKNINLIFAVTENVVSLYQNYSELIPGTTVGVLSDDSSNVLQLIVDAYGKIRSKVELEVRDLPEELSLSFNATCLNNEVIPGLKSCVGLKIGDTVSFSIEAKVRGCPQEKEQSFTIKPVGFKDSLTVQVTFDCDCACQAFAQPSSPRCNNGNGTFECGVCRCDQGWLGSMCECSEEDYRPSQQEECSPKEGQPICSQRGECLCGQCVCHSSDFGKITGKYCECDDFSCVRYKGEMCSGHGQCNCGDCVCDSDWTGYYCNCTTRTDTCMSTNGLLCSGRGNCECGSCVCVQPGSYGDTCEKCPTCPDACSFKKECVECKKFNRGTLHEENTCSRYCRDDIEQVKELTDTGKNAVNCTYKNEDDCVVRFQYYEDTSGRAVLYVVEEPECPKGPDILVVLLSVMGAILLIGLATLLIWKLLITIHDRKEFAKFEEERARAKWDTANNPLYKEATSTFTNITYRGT
Experimental: All animals underwent hindlimb occlusion of the right femoral artery and a sham operation on the left hindlimb, following previously-described procedures. Briefly, a small incision was made on the right leg to expose the femoral vasculature, and dual ligation of the femoral artery was performed distal to the profundus branch to induce unilateral hindlimb ischemia. All mice were allowed to recover for 7 days after surgery.
as §1, with “USA). An additional group of non-diabetic mice (n = 4) was injected with 7.21 ± 2.31 MBq of ^64Cu-acetate to study differential organ biodistribution of ^64Cu-NOTA-PEG4-cRGD2.” for “USA).”
The microPET and microCT images were reconstructed using the OSEM/3D algorithm (Siemens Healthcare USA) and the cone-beam technique (Cobra Exim), respectively. MicroPET images were fused with microCT images and quantified using a semiautomated approach developed and evaluated previously. […] To validate the accuracy of the quantitative targeted imaging approach, image-derived results were compared with the gamma well counting analysis of the corresponding tissue samples. […]

organ uptake in liver, gallbladder, kidneys and intestines [1]: > 20 %I.D./g
retention in ischemic relative to non-ischemic hindlimb [2]: comparable accumulation in both limbs
Structure (SMILES): CC(=O)[O-].CC(=O)[O-].[64Cu+2] [^64Cu-acetate]
